# Laboratory results as given in patent publication US11266632B1, “Maslinic and oleanolic acids derivatives for treating SARS-CoV-2 infection” (priority 2021, dated 2022).
# Where two headings read alike, the source gives them in different places.
# Assays:
# [1] = system: SARS-CoV-2 "NRC-03-nhCoV" virus; test: Inhibitory concentration 50 (IC50) determination, virus-induced cytopathic effect in Vero-E6 cells, crystal violet; format: cell-based; conditions: for Selectivity Index (CC50/IC50): CC50 Vero E6 / IC50 NRC-03-nhCoV
# [2] = system: NRC-03-nhCoV; test: Mode of antiviral action, plaque infectivity reduction assay in Vero-E6 cells; format: cell-based, SARS-CoV-2
# Procedure: To investigate whether the tested compound with high selectivity index and antiviral activity against NRC-03-nhCoV affect (a) viral adsorption, (b) viral replication or (c) viricidal effect, a plaque infectivity reduction assay was performed according to the following protocols:
# The viral adsorption mechanism was assayed according to a protocol by Zhang et al. with modifications. Vero-E6 cells were cultivated in a 6-well plate (10^5 cells/mL) for 24 h at 37° C. Each tested drug was applied in 500 μL of medium without supplements and co-incubated with the cells for 2 h at 4° C. The non-absorbed drug in the applied inocula was removed by washing cells three times with 1×PBS. The NRC-03-nhCoV was diluted to a countable range “10-4” and co-incubated with the pretreated cells. About 1 h post-incubation, the inocula were removed and 3 mL of agarose overlay (1:1 mixture of warmed 2× plaque media and a stock solution of heated 2% agarose) were added. The plates were kept at room temperature to solidify and then incubated at 37° C. to allow the formation of viral plaques. […]
# The impact of the tested drug on viral replication was determined as previously described. […] The analyzed compound was then applied in varying concentrations to infected cells for another 1 h contact time at 37° C. […]
# The virucidal mechanism was analyzed. […]
# [3] = system: MERS-CoV virus "NRCE-HKU270"; format: cell-based; conditions: Vero E6 cells
# [4] = Severe acute respiratory syndrome coronavirus 2, Vero C1008, 72 h, NRC-03-nhCoV in Vero E6, 72 h, reduction of CPE by 50%, read-out: IC50
# [5] = Severe acute respiratory syndrome coronavirus 2, Vero C1008, 72 h
Compound,Selectivity Index (CC50/IC50) [1],"IC50 [1, 4] [µM]",also measured
"Cc1cccc(-n2cc(COC(=O)[C@]34CCC(C)(C)CC3C3=CCC5[C@@]6(C)CC[C@H](O)C(C)(C)C6CC[C@@]5(C)[C@]3(C)CC4)nn2)c1 (stereo partly drawn) [Compound 10, (1-(3-methylphenyl)-1H-1,2,3-triazol-4-yl)methyl-(3β)-3-hydroxyolean-12-en-28-oate]",3.68,,
"C#CCOC(=O)[C@]12CCC(C)(C)CC1C1=CCC3[C@@]4(C)C[C@@H](OCC#C)[C@H](OCC#C)C(C)(C)C4CC[C@@]3(C)[C@]1(C)CC2 (stereo partly drawn) [Compound 7, Propargyl-(2α,3β)-2,3-bis(propargyloxy)-olean-12-en-28-oate]",0.9,108,
"CC1(C)CC[C@]2(C(=O)O)CC[C@]3(C)C(=CC[C@@H]4[C@@]5(C)C[C@@H](O)[C@H](O)C(C)(C)[C@@H]5CC[C@]43C)[C@@H]2C1 [Compound 2, Maslinic acid]",0.97,,"IC50 [1, 5]: 99.9 µM"
"COc1ccc(-c2cc(COC(=O)[C@]34CCC(C)(C)CC3C3=CCC5[C@@]6(C)CC[C@H](O)C(C)(C)C6CC[C@@]5(C)[C@]3(C)CC4)on2)cc1 (stereo partly drawn) [Compound 15, (3-(4-methoxyphenyl)isoxazol-5-yl) methyl-(3β)-3-hydroxyolean-12-en-28-oate]",0.79,,
"CC1(C)CC[C@]2(C(=O)OCc3cc(-c4ccc(Cl)cc4)no3)CC[C@]3(C)C(=CCC4[C@@]5(C)C[C@@H](O)[C@H](O)C(C)(C)C5CC[C@]43C)C2C1 (stereo partly drawn) [Compound 17, (3-(4-chlorophenyl)isoxazol-5-yl) methyl-(2α,3β)-2,3-dihydroxyolean-12-en-28-oate]",,4.12,"IC50 ([1]; NRC-03-nhCoV in Vero E6, 72 h, reduction of CPE by 50%, read-out: IC50): 4.12 to 99.9 µM; interference with viral adsorption and replication [2]: efficiently impair viral replication and adsorption; virucidal effect [2]: virucidal effect; antiviral activity against NRCE-HKU270 [3]: promising antiviral activity against NRCE-HKU270 at micromolar concentrations"
"COc1ccc(-n2cc(COC(=O)[C@]34CCC(C)(C)CC3C3=CCC5[C@@]6(C)C[C@@H](O)[C@H](OCc7cn(-c8ccc(OC)cc8)nn7)C(C)(C)C6CC[C@@]5(C)[C@]3(C)CC4)nn2)cc1 (stereo partly drawn) [Compound 13, (1-(4-Methoxyphenyl)-1H-1,2,3-triazol-4-yl)methyl-(2α,3β)-2-hydroxy-3-((1-(4-methoxyphenyl)-1H-1,2,3-triazol-4-yl)methoxy)-olean-12-en-28-oate]",2.24,159,
"C#CCOC(=O)[C@]12CCC(C)(C)CC1C1=CCC3[C@@]4(C)CC[C@H](O)C(C)(C)C4CC[C@@]3(C)[C@]1(C)CC2 (stereo partly drawn) [Compound 3, Propargyl-(3β)-3-hydroxyolean-12-en-28-oate]",2.32,,
"COc1ccc(-n2cc(COC(=O)[C@]34CCC(C)(C)CC3C3=CCC5[C@@]6(C)C[C@@H](OCc7cn(-c8ccc(OC)cc8)nn7)[C@H](OCc7cn(-c8ccc(OC)cc8)nn7)C(C)(C)C6CC[C@@]5(C)[C@]3(C)CC4)nn2)cc1 (stereo partly drawn) [Compound 14, (1-(4-Methoxyphenyl)-1H-1,2,3-triazol-4-yl)methyl-(2α,3β)-2,3-bis((1-(4-methoxyphenyl)-1H-l,2,3-triazol-4-yl)methoxy)-olean-12-en-28-oate]",2.96,137,
"CC1(C)CC[C@]2(C(=O)OCc3cn(-c4ccccc4)nn3)CC[C@]3(C)C(=CCC4[C@@]5(C)C[C@@H](O)[C@H](O)C(C)(C)C5CC[C@]43C)C2C1 (stereo partly drawn) [Compound 11, (1-Phenyl-1H-1,2,3-triazol-4-yl)methyl-(2α,3β)-2,3-dihydroxyolean-12-en-28-oate]",1.62,135,
"CC1(C)CC[C@]2(C(=O)O)CC[C@]3(C)C(=CC[C@@H]4[C@@]5(C)CC[C@H](O)C(C)(C)[C@@H]5CC[C@]43C)[C@@H]2C1 [Compound 1, Oleanic acid]",0.39,,"IC50 [1, 5]: 476 µM"
"CC1(C)CC[C@]2(C(=O)OCc3cn(-c4ccc(Cl)cc4)nn3)CC[C@]3(C)C(=CCC4[C@@]5(C)C[C@@H](OCc6cn(-c7ccc(Cl)cc7)nn6)[C@H](O)C(C)(C)C5CC[C@]43C)C2C1 (stereo partly drawn) [Compound 12, (1-(4-Chlorophenyl)-1H-1,2,3-triazol-4-yl)methyl-(2α,3β)-2-((1-(4-chlorophenyl)-1H-1,2,3-triazol-4-yl)methoxy)-3-hydroxyolean-12-en-28-oate]",4.42,116,
"C#CCOC(=O)[C@]12CCC(C)(C)CC1C1=CCC3[C@@]4(C)C[C@@H](O)[C@H](O)C(C)(C)C4CC[C@@]3(C)[C@]1(C)CC2 (stereo partly drawn) [Compound 4, Propargyl-(2α,3β)-2,3-dihydroxyolean-12-en-28-oate]",0.67,,"IC50 [1, 5]: 236 µM"
"COc1ccc(-c2cc(COC(=O)[C@]34CCC(C)(C)CC3C3=CCC5[C@@]6(C)C[C@@H](O)[C@H](O)C(C)(C)C6CC[C@@]5(C)[C@]3(C)CC4)on2)cc1 (stereo partly drawn) [Compound 16, (3-(4-methoxyphenyl)isoxazol-5-yl) methyl-(2α,3β)-2,3-dihydroxyolean-12-en-28-oate]",1.48,,
"Cc1cccc(-n2nncc2COC(=O)[C@]23CCC(C)(C)CC2C2=CCC4[C@@]5(C)CC[C@H](O)C(C)(C)C5CC[C@@]4(C)[C@]2(C)CC3)c1 (stereo partly drawn) [Compound 8, (1-(3-mcthylphenyl)-1H-1,2,3-triazol-5-yl)methyl-(3β)-3-hydroxyolean-12-en-28-oate]",0.98,174,
"C#CCOC(=O)[C@]12CCC(C)(C)CC1C1=CCC3[C@@]4(C)C[C@@H](OCC#C)[C@H](O)C(C)(C)C4CC[C@@]3(C)[C@]1(C)CC2 (stereo partly drawn) [Compound 5, Propargyl-(2α)-2-(propargyloxy)-(3β)-3-hydroxy-olean-12-en-28-oate]",1.06,85.2,
"C#CCOC(=O)[C@]12CCC(C)(C)CC1C1=CCC3[C@@]4(C)C[C@@H](O)[C@H](OCC#C)C(C)(C)C4CC[C@@]3(C)[C@]1(C)CC2 (stereo partly drawn) [Compound 6, Propargyl-(3α)-3-(propargyloxy)-(2β)-2-hydroxy-olean-12-en-28-oate]",1.55,135,
